Tested on: control human primary myoblasts
Experiment: Expression microarray of primary myoblasts transduced with lentivirus carrying DUX4-fl, DUX4-s or GFP
Procedure: Primary human myoblasts were collected and cultured as previously described (Snider et al., 2010). Primary myoblasts were maintained at or below 70% confluency for proliferation. For differentiation, cells were allowed to reach 95-100% confluency in growth medium. Once confluency was reached, the cells were changed to differentiation medium (F10 media supplemented with 1% horse serum, 10 μg/mL insulin, and 10 μg/mL transferrin, penicillin/streptomycin) and maintained for 4 days. Human RD cells were grown in DMEM in 10% bovine calf serum (Hyclone) and penicillin/streptomycin. The primary myoblasts were transduced with lentivirus carrying DUX-fl, DUX4- or GFP (MOI=15).
Expression microarrays were performed on the transduced cells at 24 hours after transduction as follows. […] Samples were analyzed by Illumina Human Whole Genome microarrays. Probe intensities were corrected, normalized, and summarized by the Lumi package of Bioconductor (Du et al., 2008). Differentially expressed genes were identified by the LIMMA package of Bioconductor (Wettenhall and Smyth, 2004). Gene set enrichment analysis (GSEA) was performed using the Bioconductor GOstats package (Falcon and Gentleman, 2007).

“DUX4-fl: full-length DUX4 protein (SEQ ID NO:110), expressed from lentiviral or pCS2 vectors or in vitro translated” was tested, and the MT1A expression fc (cultured human skeletal muscle) was −1.526, the MT2A expression fc (cultured human skeletal muscle) was −1.443 and the MUC1 expression fc (cultured human skeletal muscle) was −1.74. For the same substance, the MYBPHL expression fc (cultured human skeletal muscle) was −1.492, the MYF5 expression fc (cultured human skeletal muscle) was −1.587 and the MYH13 expression fc (cultured human skeletal muscle) was −1.441. The NACC2 expression fc (cultured human skeletal muscle) was −1.787, the NFIL3 expression fc (cultured human skeletal muscle) was −1.823 and the NFKB1 expression fc (cultured human skeletal muscle) was −1.512. For the same substance, the NFKBIZ expression fc (cultured human skeletal muscle) was −1.572, the NINJ1 expression fc (cultured human skeletal muscle) was −1.694 and the NPTX2 expression fc (cultured human skeletal muscle) was −1.386. The NRXN2 expression fc (cultured human skeletal muscle) was −1.627, the NT5E expression fc (cultured human skeletal muscle) was −1.558 and the OCEL1 expression fc (cultured human skeletal muscle) was −1.412. The P2RX6 expression fc (cultured human skeletal muscle) was −1.475, the PARP3 expression fc (cultured human skeletal muscle) was −1.483 and the PCK2 expression fc (cultured human skeletal muscle) was −1.776. For the same substance, the PCTK3 expression fc (cultured human skeletal muscle) was −1.641, the PDK4 expression fc (cultured human skeletal muscle) was −1.521 and the PDPN expression fc (cultured human skeletal muscle) was −1.623. For the same substance, the PFKFB4 expression fc (cultured human skeletal muscle) was −1.865, the PHF15 expression fc (cultured human skeletal muscle) was −1.415 and the PHLDA3 expression fc (cultured human skeletal muscle) was −1.557. It also gave a PLA2G4C expression fc (cultured human skeletal muscle) of −1.429, a PLEKHA4 expression fc (cultured human skeletal muscle) of −1.457 and a PLIN2 expression fc (cultured human skeletal muscle) of −1.413. The PLXNB1 expression fc (cultured human skeletal muscle) was −1.442, the PLXNB2 expression fc (cultured human skeletal muscle) was −1.649 and the PPAP2B expression fc (cultured human skeletal muscle) was −1.742. The PPP3CC expression fc (cultured human skeletal muscle) was −1.457, the PRDM1 expression fc (cultured human skeletal muscle) was −1.573 and the PRKCD expression fc (cultured human skeletal muscle) was −1.531. The PSMB10 expression fc (cultured human skeletal muscle) was −1.6, the PSME2 expression fc (cultured human skeletal muscle) was −1.477 and the PTGES expression fc (cultured human skeletal muscle) was −1.632. The PTPRU expression fc (cultured human skeletal muscle) was −1.477, the RALGDS expression fc (cultured human skeletal muscle) was −1.475 and the RBCK1 expression fc (cultured human skeletal muscle) was −1.636. The RBM43 expression fc (cultured human skeletal muscle) was −1.517, the RCAN1 expression fc (cultured human skeletal muscle) was −1.566 and the RELB expression fc (cultured human skeletal muscle) was −1.391. The RGS20 expression fc (cultured human skeletal muscle) was −1.478, the RHBDF2 expression fc (cultured human skeletal muscle) was −1.741 and the RRAS expression fc (cultured human skeletal muscle) was −1.405. It also gave an RRBP1 expression fc (cultured human skeletal muscle) of −1.483, an RTKN expression fc (cultured human skeletal muscle) of −1.734 and an RTTN expression fc (cultured human skeletal muscle) of −1.663. The RUSC1 expression fc (cultured human skeletal muscle) was −1.47, the SERPING1 expression fc (cultured human skeletal muscle) was −1.668 and the SESN1 expression fc (cultured human skeletal muscle) was −1.581. For the same substance, the SHISA5 expression fc (cultured human skeletal muscle) was −1.763, the SIX5 expression fc (cultured human skeletal muscle) was −1.673 and the SLC16A3 expression fc (cultured human skeletal muscle) was −1.582. The SLC22A18 expression fc (cultured human skeletal muscle) was −1.56, the SLC25A28 expression fc (cultured human skeletal muscle) was −1.534 and the SLC39A14 expression fc (cultured human skeletal muscle) was −1.872. It also gave an SPTLC3 expression fc (cultured human skeletal muscle) of −1.444, an SQSTM1 expression fc (cultured human skeletal muscle) of −1.695 and an SRGN expression fc (cultured human skeletal muscle) of −1.873. The STC1 expression fc (cultured human skeletal muscle) was −1.571, the STEAP3 expression fc (cultured human skeletal muscle) was −1.405 and the SUSD2 expression fc (cultured human skeletal muscle) was −1.398. For the same substance, the TAPBP expression fc (cultured human skeletal muscle) was −1.844, the TCEA3 expression fc (cultured human skeletal muscle) was −1.706 and the TCP11L1 expression fc (cultured human skeletal muscle) was −1.532. The TMEM45A expression fc (cultured human skeletal muscle) was −1.574, the TMEM173 expression fc (cultured human skeletal muscle) was −1.816 and the TNFAIP2 expression fc (cultured human skeletal muscle) was −1.593. It also gave a TNFRSF1A expression fc (cultured human skeletal muscle) of −1.672, a TNFRSF6B expression fc (cultured human skeletal muscle) of −1.678 and a TNFSF13B expression fc (cultured human skeletal muscle) of −1.763. It also gave a TNS3 expression fc (cultured human skeletal muscle) of −1.56, a TRAF3IP2 expression fc (cultured human skeletal muscle) of −1.529 and a TRIP6 expression fc (cultured human skeletal muscle) of −1.457. The TRNP1 expression fc (cultured human skeletal muscle) was −1.527, the TSC22D3 expression fc (cultured human skeletal muscle) was −1.729 and the VASN expression fc (cultured human skeletal muscle) was −1.76. It also gave a VEZF1 expression fc (cultured human skeletal muscle) of −1.528, an XBP1 expression fc (cultured human skeletal muscle) of −1.679 and a ZBTB4 expression fc (cultured human skeletal muscle) of −1.417. It also gave a ZC3H12A expression fc (cultured human skeletal muscle) of −1.546, a ZFHX3 expression fc (cultured human skeletal muscle) of −1.762 and a ZFP36L2 expression fc (cultured human skeletal muscle) of −1.545. For the same substance, the ZFP90 expression fc (cultured human skeletal muscle) was −1.609, the ZNF337 expression fc (cultured human skeletal muscle) was −1.693 and the ZNF395 expression fc (cultured human skeletal muscle) was −1.392. The “Full.fc (expression fold change for DUX4-fl targets)” value (gene AVPI1) was 2, the “Full.fc (expression fold change for DUX4-fl targets)” value (gene BZW2) was 2.7 and the “Full.fc (expression fold change for DUX4-fl targets)” value (gene C1orf63) was 2.2. For the same substance, the “Full.fc (expression fold change for DUX4-fl targets)” value (gene C6orf191) was 2.1, the “Full.fc (expression fold change for DUX4-fl targets)” value (gene C14orf102) was 2.5 and the “Full.fc (expression fold change for DUX4-fl targets)” value (gene C14orf138) was 1.7. The “Full.fc (expression fold change for DUX4-fl targets)” value (gene C21orf91) was 1.8, the “Full.fc (expression fold change for DUX4-fl targets)” value (gene CBARA1) was 2.1 and the “Full.fc (expression fold change for DUX4-fl targets)” value (gene CCNA1) was 7.5. For the same substance, the “Full.fc (expression fold change for DUX4-fl targets)” value (gene CCNJ) was 2.7, the “Full.fc (expression fold change for DUX4-fl targets)” value (gene CLDN14) was 3.1 and the “Full.fc (expression fold change for DUX4-fl targets)” value (gene CLK1) was 1.8. The “Full.fc (expression fold change for DUX4-fl targets)” value (gene CSE1L) was 2.9, the “Full.fc (expression fold change for DUX4-fl targets)” value (gene CTNNAL1) was 1.6 and the “Full.fc (expression fold change for DUX4-fl targets)” value (gene CTR9) was 2.4. The “Full.fc (expression fold change for DUX4-fl targets)” value (gene DBR1) was 3.4, the “Full.fc (expression fold change for DUX4-fl targets)” value (gene DDX47) was 1.7 and the “Full.fc (expression fold change for DUX4-fl targets)” value (gene DEFB103A) was 6.4. For the same substance, the “Full.fc (expression fold change for DUX4-fl targets)” value (gene DENND2C) was 2.6, the “Full.fc (expression fold change for DUX4-fl targets)” value (gene EGLN1) was 1.6 and the “Full.fc (expression fold change for DUX4-fl targets)” value (gene EXOSC10) was 1.9. The “Full.fc (expression fold change for DUX4-fl targets)” value (gene FAM90A1) was 3.6, the “Full.fc (expression fold change for DUX4-fl targets)” value (gene FBXO33) was 3.2 and the “Full.fc (expression fold change for DUX4-fl targets)” value (gene FRG2B) was 2. The “Full.fc (expression fold change for DUX4-fl targets)” value (gene GPBAR1) was 1.9, the “Full.fc (expression fold change for DUX4-fl targets)” value (gene GTF2F1) was 3.2 and the “Full.fc (expression fold change for DUX4-fl targets)” value (gene HOXB2) was 2.2. The “Full.fc (expression fold change for DUX4-fl targets)” value (gene JUP) was 3.2, the “Full.fc (expression fold change for DUX4-fl targets)” value (gene KDM5B) was 1.8 and the “Full.fc (expression fold change for DUX4-fl targets)” value (gene KIF21A) was 1.8. The “Full.fc (expression fold change for DUX4-fl targets)” value (gene MAPKAP1) was 1.6, the “Full.fc (expression fold change for DUX4-fl targets)” value (gene MAST4) was 1.7 and the “Full.fc (expression fold change for DUX4-fl targets)” value (gene MED13) was 1.8. For the same substance, the “Full.fc (expression fold change for DUX4-fl targets)” value (gene NANS) was 1.9, the “Full.fc (expression fold change for DUX4-fl targets)” value (gene NFYA) was 2.3 and the “Full.fc (expression fold change for DUX4-fl targets)” value (gene PABPN1) was 2.6. For the same substance, the “Full.fc (expression fold change for DUX4-fl targets)” value (gene PANX2) was 3.8, the “Full.fc (expression fold change for DUX4-fl targets)” value (gene PELI1) was 2.9 and the “Full.fc (expression fold change for DUX4-fl targets)” value (gene PNP) was 7. The “Full.fc (expression fold change for DUX4-fl targets)” value (gene PPP2R2B) was 4.1, the “Full.fc (expression fold change for DUX4-fl targets)” value (gene PRAMEF12) was 7.8 and the “Full.fc (expression fold change for DUX4-fl targets)” value (gene PRPF18) was 1.7. For the same substance, the “Full.fc (expression fold change for DUX4-fl targets)” value (gene PRR4) was 3.6, the “Full.fc (expression fold change for DUX4-fl targets)” value (gene PTP4A1) was 1.7 and the “Full.fc (expression fold change for DUX4-fl targets)” value (gene PVRL3) was 2.2. The “Full.fc (expression fold change for DUX4-fl targets)” value (gene RBBP6) was 2, the “Full.fc (expression fold change for DUX4-fl targets)” value (gene RFPL1) was 8.4 and the “Full.fc (expression fold change for DUX4-fl targets)” value (gene RFPL2) was 7.3. For the same substance, the “Full.fc (expression fold change for DUX4-fl targets)” value (gene RFPL4B) was 8.3, the “Full.fc (expression fold change for DUX4-fl targets)” value (gene RTN4) was 1.6 and the “Full.fc (expression fold change for DUX4-fl targets)” value (gene SAMD8) was 1.6. For the same substance, the “Full.fc (expression fold change for DUX4-fl targets)” value (gene SEC61A2) was 1.8, the “Full.fc (expression fold change for DUX4-fl targets)” value (gene SFRS2B) was 4.2 and the “Full.fc (expression fold change for DUX4-fl targets)” value (gene SH3GL2) was 1.6. For the same substance, the “Full.fc (expression fold change for DUX4-fl targets)” value (gene SIAH1) was 3.7, the “Full.fc (expression fold change for DUX4-fl targets)” value (gene SNAI1) was 1.9 and the “Full.fc (expression fold change for DUX4-fl targets)” value (gene SON) was 2.1. The “Full.fc (expression fold change for DUX4-fl targets)” value (gene SPRYD5) was 1.8, the “Full.fc (expression fold change for DUX4-fl targets)” value (gene SPTY2D1) was 3.3 and the “Full.fc (expression fold change for DUX4-fl targets)” value (gene SRRT) was 2.6. For the same substance, the “Full.fc (expression fold change for DUX4-fl targets)” value (gene SYNJ1) was 2.4, the “Full.fc (expression fold change for DUX4-fl targets)” value (gene TAF4B) was 1.9 and the “Full.fc (expression fold change for DUX4-fl targets)” value (gene TFIP11) was 3.2. For the same substance, the “Full.fc (expression fold change for DUX4-fl targets)” value (gene TRIM43) was 8.1, the “Full.fc (expression fold change for DUX4-fl targets)” value (gene TRIM48) was 7.9 and the “Full.fc (expression fold change for DUX4-fl targets)” value (gene TRIM49L1) was 6.9. For the same substance, the “Full.fc (expression fold change for DUX4-fl targets)” value (gene TRIM49L2) was 6.9, the “Full.fc (expression fold change for DUX4-fl targets)” value (gene USP29) was 2.6 and the “Full.fc (expression fold change for DUX4-fl targets)” value (gene ZNF217) was 4.1. The “Full.fc (expression fold change for DUX4-fl targets)” value (gene ZNF296) was 5.5, the “Full.fc (expression fold change for DUX4-fl targets)” value (gene ZNF705A) was 3.9 and the “Full.fc (expression fold change for DUX4-fl targets)” value (gene ZSCAN4) was 8.3. For the same substance, the “Full.fc (expression fold change for DUX4-fl targets)” value (gene ZSCAN5B) was 3.8 and the “Full.fc (expression fold change for DUX4-fl targets)” value (gene hCG_1651160) was 8.3.
